From patent US11639350B2, “Heteroaryldihydropyrimidine derivatives and methods of treating hepatitis B infections” (Janssen Pharmaceutica NV, priority 2018, dated 2023) come the findings set out here.

A short description of data set [1]: Cytotoxicity determination in HepG2.2.15 cells (CCK-8). Type of data set: cell-based. As to conditions: human, 6 days of compound treatment, CCK-8, highest concentration 100 μM. Here is the method:
(§1) HBV replication inhibition by the compounds of this invention as well as cytotoxicity determination was determined in cells infected or transfected with HBV, or cells with stably integrated HBV, such as HepG2.2.15 cells (Sells et al. 1987). The method used herein is as follows.
(§2) The HepG2.2.15 cells were seeded into 96-well plate in 2% FBS (Fetal bovine serum) culture medium at the density of 40,000 cells/well and 5,000 cells/well for HBV inhibitory activity and cytotoxicity determination, respectively. After seeding, the cell plates were incubated at 37° C., 5% CO2 overnight. The next day, medium containing compounds were added to treat the cells for 6 days with medium refreshed once in the middle of the treatment. Eight dose points with 3 folds dilution of each compound were adopted and the highest concentration of the compounds was 10 μM and 100 μM for HBV inhibitory activity and cytotoxicity determination, respectively.
After 6 days of compounds treatment, 20 μl CCK-8 (Cell Counting Kit-8 (Tianjin Biolite company)) reagents were added to each well of cytotoxicity assay plates, the plate was incubated at 37° C., 5% CO2 for 2.5 hours and the absorbance at 450 nm wavelength was measured, at the same time the absorbance at 630 nm wavelength was read as reference.
(§3) EC50 and CC50 values are calculated by the GraphPad Prism software and are averages where multiple measurements were made. EC50 values for the other exemplified compounds were either not measured or higher than 1 μM.

For the next data set, the system named is HBV. Description: HBV inhibitory activity: HBV DNA in the culture medium of HepG2.2.15 cells by q-PCR. Type of data set: cell-based. As to conditions: HepG2.2.15 cells, 6 days of compound treatment, HBV DNA in culture medium by q-PCR, highest concentration 10 μM, read-out: EC50. How it is done: as §1, §2
The HBV DAN change in the cell culture medium induced by the compounds was measured by q-PCR (quantitative polymerase chain reaction) method. The HBV DNA in the culture medium was extracted using QIAamp 96 DNA Blood Kit according to the manual and then quantified by q-PCR using the primers and probe in the table below: […]
as §3

Setting [2] is: Hepatitis B virus, HepG2.2.15, 144 h.

Structures are written as SMILES. Like-named read-outs stand apart in the source and are kept apart here.

Turning to `CCOC(=O)C1=C(C2CCN(S(=O)(=O)[C@H]3C[C@@H](C(=O)O)C3)CC2)NC(c2nccs2)=NC1c1cccc(F)c1Br` (relative stereo) [Compound 339D, (cis)-3-((4-(6-(2-Bromo-3-fluorophenyl)-5-(ethoxycarbonyl)-2-(thiazol-2-yl)-3,6-dihydropyrimidin-4-yl)piperidin-1-yl)sulfonyl)cyclobutanecarboxylic Acid], the cytotoxic concentration (CC50) (commonly the concentration giving 50% cytotoxicity) at 6 days in data set [1] stood at 32.7 µM. Moreover, the EC50 (usually the concentration needed to bring the measured effect to its halfway point) with HBV (setting [2]) was 99 nM.

For the molecule `COC(=O)C1=C(C2CNC(=O)C2)NC(c2nccs2)=NC1c1cccc(F)c1Cl` (stereo not shown) [Compound 284, methyl 4-(2-chloro-3-fluorophenyl)-6-(−5-oxopyrrolidin-3-yl)-2-(thiazol-2-yl)-1,4-dihydropyrimidine-5-carboxylate], the CC50 at 6 days in data set [1] is 21.1 µM. Also, the EC50 in the data set with HBV (setting [2]) was determined as 226 nM.

In turn, `COC(=O)C1=C(C2CCN(S(=O)(=O)[C@H]3C[C@H](C(=O)O)C3)CC2)NC(c2nccs2)=NC1c1ccc(F)c(F)c1Cl` (single isomer, unassigned) [Compound 232B, (trans)-3-((4-(6-(2-Chloro-3,4-difluorophenyl)-5-(methoxycarbonyl)-2-(thiazol-2-yl)-3,6-dihydropyrimidin-4-yl)piperidin-1-yl)sulfonyl)cyclobutanecarboxylic Acid] registered a 50% cytotoxic concentration (CC50) at 6 days in data set [1] of 60 µM. Also, the half-maximal effective concentration (EC50) in the data set with HBV (setting [2]) was 57 nM.

The molecule `CCOC(=O)C1=C([C@H]2CC[C@H](C(=O)O)CO2)NC(c2nccs2)=NC1c1ccc(F)cc1Cl` (single isomer, unassigned) [Compound 363E, (trans)-6-(−6-(2-Chloro-4-fluorophenyl)-5-(ethoxycarbonyl)-2-(thiazol-2-yl)-3,6-dihydropyrimidin-4-yl)tetrahydro-2H-pyran-3-carboxylic Acid] registered a CC50 at 6 days in data set [1] above 100 µM. The concentration giving a half-maximal response (EC50) with HBV was determined as 296 nM.

In data set [1], `COC(=O)C1=C(C2CCN(S(=O)(=O)CCC(=O)O)CC2)NC(c2nccs2)=NC1c1cccc(F)c1Cl` (stereo not shown) [Compound 114, 3-((4-(6-(2-Chloro-3-fluorophenyl)-5-(methoxycarbonyl)-2-(thiazol-2-yl)-3,6-dihydro-pyrimidin-4-yl)piperidin-1-yl)sulfonyl)propanoic Acid] yielded a 50% cytotoxic concentration (CC50) at 6 days of 27.5 µM. For the same molecule, the EC50 with HBV (setting [2]) came to 40 nM.

For `COC(=O)C1=C([C@H]2CC[C@H](N(CC#N)S(C)(=O)=O)CC2)NC(c2nccs2)=NC1c1ccc(F)cc1Cl` (single isomer, unassigned) [Compound 448A, (trans)-Methyl 4-(2-chloro-4-fluorophenyl)-6-(4-(N-(cyanomethyl)methylsulfonamido)cyclohexyl)-2-(thiazol-2-yl)-1,4-dihydropyrimidine-5-carboxylate], the CC50 at 6 days in data set [1] was above 100 µM. Besides, the 50% effective concentration (EC50) in the data set with HBV (setting [2]) came to 8 nM.

Turning to `COCCOCCS(=O)(=O)N1CCC(C2=C(C(=O)OC)C(c3ccc(F)cc3Cl)N=C(c3nccs3)N2)CC1` (stereo not shown) [Compound 464, Methyl 4-(2-chloro-4-fluorophenyl)-6-(1-((2-(2methoxyethoxy)ethyl)sulfonyl)piperidin-4-yl)-2-(thiazol-2-yl)-1,4-dihydropyrimidine-5-carboxylate], the half-maximal cytotoxic concentration (CC50) at 6 days in data set [1] worked out at 29.4 µM. Further, the half-maximal effective concentration (EC50) in the data set on HBV (setting [2]) is below 4.6 nM.

`COC(=O)C1=C(C2CCN(C(C)=O)CC2)NC(c2nccs2)=NC1c1ccc(F)cc1Cl` (stereo not shown) [Compound 2, Methyl 6-(1-acetylpiperidin-4-yl)-4-(2-chloro-4-fluorophenyl)-2-(thiazol-2-yl)-1,4-dihydropyrimidine-5-carboxylate] had a CC50 at 6 days in data set [1] of 98.4 µM. For the same molecule, the EC50 with HBV (setting [2]) was 232 nM.

Consider `COC(=O)C1=C(C2CCC(S(=O)(=O)N3CCC3)CC2)NC(c2nccs2)=NC1c1ccc(F)c(F)c1Cl` (stereo not shown) [Compound 430, methyl 6-(4-(azetidin-1-ylsulfonyl)cyclohexyl)-4-(2-chloro-3,4-difluorophenyl)-2-(thiazol-2-yl)-1,4-dihydropyrimidine-5-carboxylate], for which the 50% cytotoxic concentration (CC50) at 6 days in data set [1] worked out at 15.1 µM. Besides, in the data set on HBV (setting [2]), the EC50 stood at 15 nM.

`COC(=O)C1=C([C@H]2CC[C@H](C(=O)OC)CC2)NC(c2nc(C)cs2)=NC1c1ccc(F)cc1Br` (single isomer, unassigned) [Compound 239X, (trans)-Methyl 4-(2-bromo-4-fluorophenyl)-6-(4-(methoxycarbonyl)cyclohexyl)-2-(4-methylthiazol-2-yl)-1,4-dihydropyrimidine-5-carboxylate] showed a CC50 at 6 days in data set [1] of 14.8 µM. The concentration giving a half-maximal response (EC50) in the data set on HBV (setting [2]) turned out to be 149 nM.

`COC(=O)C1=C([C@H]2CC[C@H](C(=O)OC)CC2)NC(c2nccs2)=NC1c1ccc(F)cc1Br` (relative stereo) [Compound 224, (trans)-Methyl 4-(2-bromo-4-fluorophenyl)-6-(4-(methoxycarbonyl)cyclohexyl)-2-(thiazol-2-yl)-1,4-dihydropyrimidine-5-carboxylate] showed a CC50 at 6 days in data set [1] of 28.4 µM. Moreover, in the data set on HBV (setting [2]), the 50% effective concentration (EC50) turned out to be 71 nM.

Take `COC(=O)C1=C(C2CC3CCC(C2)N3S(C)(=O)=O)NC(c2nccs2)=NC1c1ccc(F)cc1Cl` (single isomer, unassigned) [Compound 38B, 4-(2-Chloro-4-fluoro-phenyl)-6-(8-methanesulfonyl-8-aza-bicyclo[3.2.1]oct-3-yl)-2-thiazol-2-yl-1,4-dihydro-pyrimidine-5-carboxylic Acid Methyl Ester]: the CC50 at 6 days in data set [1] came to 34.1 µM. Besides, the concentration for a half-maximal effect (EC50) in the data set on HBV (setting [2]) came to 239 nM.

In data set [1], `COCCNS(=O)(=O)[C@H]1CC[C@@H](C2=C(C(=O)OC)C(c3ccc(F)c(F)c3Cl)N=C(c3nccs3)N2)CC1` (single isomer, unassigned) [Compound 359B, (cis)-Methyl 4-(2-chloro-3,4-difluorophenyl)-6-(4-(N-(2-methoxyethyl)sulfamoyl)cyclohexyl)-2-(thiazol-2-yl)-1,4-dihydropyrimidine-5-carboxylate] yielded a CC50 at 6 days of 10.5 µM. Besides, the concentration giving a half-maximal response (EC50) in the data set with HBV (setting [2]) worked out at 55 nM.

As to `COC(=O)C1=C(C2CCC(N(C)C(C)=O)C2)NC(c2nccs2)=NC1c1cccc(F)c1Cl` (stereo not shown) [Compound 170, Methyl 4-(2-chloro-3-fluorophenyl)-6-(3-(N-methylacetamido)cyclopentyl)-2-(thiazol-2-yl)-1,4-dihydropyrimidine-5-carboxylate], it took 14.9 µM to reach half-maximal cytotoxicity in data set [1] (CC50 at 6 days). In the data set on HBV (setting [2]), the EC50 stood at 533 nM.

Consider `COCCOCCOCCS(=O)(=O)NC12CC(C3=C(C(=O)OC)C(c4ccc(F)cc4Cl)N=C(c4nccs4)N3)(C1)C2` (stereo not shown) [Compound 440b, Methyl 4-(2-chloro-4-fluorophenyl)-6-(3-(2-(2-(2-methoxyethoxy)ethoxy)ethylsulfonamido)bicyclo[1.1.1]pentan-1-yl)-2-(thiazol-2-yl)-1,4-dihydropyrimidine-5-carboxylate], for which, in data set [1], the 50% cytotoxic concentration (CC50) at 6 days is 82.9 µM. Moreover, the EC50 in the data set on HBV (setting [2]) turned out to be 13 nM.

Turning to `COC(=O)C1=C(C2CCN(C(=O)C(C)(C)C)C2)NC(c2nccs2)=NC1c1ccc(F)cc1Cl` (stereo not shown) [Compound 68, Methyl 4-(2-chloro-4-fluorophenyl)-6-(1-pivaloylpyrrolidin-3-yl)-2-(thiazol-2-yl)-1,4-dihydropyrimidine-5-carboxylate], in data set [1], the 50% cytotoxic concentration (CC50) at 6 days was found to be 72.9 µM. The EC50 with HBV (setting [2]) worked out at 581 nM.

Molecule `CNC(=O)C1COC(C2=C(C(=O)OC)C(c3cccc(F)c3Cl)N=C(c3nccs3)N2)C1` (stereo not shown) [Compound 263, Methyl 4-(2-chloro-3-fluorophenyl)-6-(4-(methylcarbamoyl)-tetrahydrofuran-2-yl)-2-(thiazol-2-yl)-1,4-dihydropyrimidine-5-carboxylate] had a CC50 at 6 days in data set [1] of 81.1 µM. In the data set on HBV (setting [2]), the concentration giving a half-maximal response (EC50) stood at 150 nM.

Take `CCOC(=O)C1=C([C@H]2CC[C@H](C(=O)O)CC2)NC(c2nccs2)=NC1c1ccc(F)cc1Cl` (single isomer, unassigned) [Compound 21, trans-4-(6-(2-Chloro-4-fluorophenyl)-5-(ethoxycarbonyl)-2-(thiazol-2-yl)-3,6-dihydropyrimidin-4-yl)cyclohexanecarboxylic Acid]: in data set [1], half-maximal cytotoxicity (CC50 at 6 days) was put at 9.9 µM. In the data set on HBV (setting [2]), the EC50 turned out to be 31 nM.

As for `COC(=O)C1=C([C@H]2CC[C@H](N(C)S(C)(=O)=O)CC2)NC(c2nccs2)=NC1c1ccc(F)cc1Cl` (single isomer, unassigned) [Compound 388B, (trans)-Methyl 4-(2-chloro-4-fluorophenyl)-6-(4-(N-methylmethylsulfonamido)cyclohexyl)-2-(thiazol-2-yl)-1,4-dihydropyrimidine-5-carboxylate], in data set [1], half-maximal cytotoxicity (CC50 at 6 days) was put at 27.8 µM. In addition, the EC50 with HBV (setting [2]) worked out at 28 nM.

With `COC(=O)C1=C(C2CCN(S(=O)(=O)N3CCOCC3)CC2)NC(c2nccs2)=NC1c1ccc(F)cc1Cl` (stereo not shown) [Compound 164, Methyl 4-(2-chloro-4-fluorophenyl)-6-(1-(morpholinosulfonyl)piperidin-4-yl)-2-(thiazol-2-yl)-1,4-dihydropyrimidine-5-carboxylate], the CC50 at 6 days in data set [1] worked out at 57.4 µM. For the same molecule, the half-maximal effective concentration (EC50) in the data set with HBV (setting [2]) turned out to be 58 nM.
